Measured values reported in patent US20050031670A1, “Weight reduction or weight controlling composition” (priority 2001, published 2005).
Structures can show the parent of a compound that is named as a salt.

Assays:
Obese patients (BMI≧30) [1] = assay: Weight loss in obese patients given bupropion without food component or dietary intervention (Example 2, comparative); format: in vivo, human; conditions: 300 mg bupropion (150 mg twice a day), no food component nor dietary counseling
Description: Example 2 (Comparative): An analysis was conducted of obese patients (BMI≧30) who were given 300 mg of bupropion (150 mg twice a day) in the absence of the food component of the invention nor any other dietary counseling or intervention. Weight loss was negligible, the average weight loss per patient in the 300 mg study was 2.4 Kg after 12 months.

Obese patients (BMI≧30) [2] = assay: Weight loss in obese patients given bupropion plus low calorie nutritional beverage (Example 3, invention); format: in vivo, human; conditions: 600 Kcal deficit diet, end of 6 months
Description: Example 3 (Invention): Obese patients (BMI≧30) were given 300 mg (N=110) or 400 mg (N=105) of bupropion and a low calorie, nutritional beverage (Slim Fast™, 11.5 oz.) for two meals per day for 6 months to achieve a 600 Kcal deficit diet. That is, each patient was given 150 or 200 mg of bupropion HCL sustained release, respectively, in a nutritional beverage (a food component of the invention) twice a day. At the end of the end of 6 months, the average weight loss was 7.2 kg and 10.1 kg for the 300 mg and 400 mg groups, respectively.

Row | SMILES | Weight loss (in words) (Obese patients (BMI≧30) [1]) | average weight loss per patient (Obese patients (BMI≧30) [1]; after 12 months) [kg] | average weight loss (Obese patients (BMI≧30) [2]; 300 mg group (150 mg twice a day) in Slim Fast 11.5 oz for two meals per day) [kg] | average weight loss (Obese patients (BMI≧30) [2]; 400 mg group (200 mg twice a day) in Slim Fast 11.5 oz for two meals per day) [kg]
1 | CC(NC(C)(C)C)C(=O)c1cccc(Cl)c1 (racemic) [bupropion, (±)-1-(3-chlorophenyl)-2-[(1,1-dimethyl)amino]-1-propanone hydrochloride] | negligible | 2.4 | – | –
2 | CC(NC(C)(C)C)C(=O)c1cccc(Cl)c1 (single isomer, unassigned; (+)) [bupropion HCL sustained release, (+)-2-(tert-butylamino)-3′-chloropropiophenome hydrochloride] | – | – | 7.2 | 10.1
